How the values were obtained:
Assay type in all cases: in vivo
Abutilon theophrasti [1] = experiment: Herbicidal action post-emergence (greenhouse pot trial); details: scored visually after about 3 weeks vs untreated controls
In short: (§1)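 Sowing in sandy loam, then 2–3 weeks of controlled greenhouse growth. Next, one-leaf-stage plants received a foliar spray of the WP- or EC-formulated compound with 0.5% additive (600 L/ha water, application rate of 80 g/ha or below). Finally, after about 3 weeks under optimal conditions, effect was judged by eye against controls.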

Alopecurus myosuroides [2] = experiment: as above; details: application rate 80 g/ha, scored visually after about 3 weeks vs untreated controls
In short: as §1

Amaranthus retroflexus [3] = experiment: as above; details: scored visually after about 3 weeks vs untreated controls
In short: as §1

Echinochloa crus-galli [4] = experiment: as above; details: scored visually after about 3 weeks vs untreated controls
In short: as §1

Lolium rigidum [5] = experiment: as above; details: scored visually after about 3 weeks vs untreated controls
In short: as §1

Matricaria inodora [6] = experiment: as above; details: scored visually after about 3 weeks vs untreated controls
In short: as §1

Polygonum convolvulus [7] = experiment: as above; details: scored visually after about 3 weeks vs untreated controls
In short: as §1

Setaria viridis [8] = experiment: as above; details: scored visually after about 3 weeks vs untreated controls
In short: as §1

Stellaria media [9] = experiment: as above; details: scored visually after about 3 weeks vs untreated controls
In short: as §1

Veronica persica [10] = experiment: as above
In short: as §1

Viola tricolor [11] = experiment: as above
In short: as §1

Glycine max [12] = experiment: Crop compatibility post-emergence (greenhouse pot trial)
In short: (§2)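 Crop seeds sown in sandy loam and grown in the greenhouse 2 to 3 weeks were treated at the one-leaf stage. WP or EC formulations were sprayed as aqueous suspension/emulsion with 0.5% additive at 600 L/ha. Damage was scored visually about 3 weeks later versus untreated controls (0% = like control, 100% = dead).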

Oryza sativa [13] = experiment: as above
In short: as §2

Triticum aestivum = experiment: as above; details: application rate 20 g/ha
In short: as §2

Zea mays [14] = experiment: as above
In short: as §2

Abutilon theophrasti [15] = experiment: Herbicidal action pre-emergence (greenhouse pot trial); details: scored after about 3 weeks
In short: (§3)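 Application rates of 320 g/ha or lower were used, with compounds delivered onto covering soil before weed emergence. After roughly three weeks in the greenhouse, damage was judged by eye as a percentage versus untreated plants.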

Alopecurus myosuroides [16] = experiment: as above; details: application rate 320 g/ha, scored after about 3 weeks
In short: as §3

Amaranthus retroflexus [17] = experiment: as above; details: scored after about 3 weeks
In short: as §3

Avena fatua [18] = experiment: as above; details: application rate 320 g/ha
In short: as §3

Echinochloa crus-galli [19] = experiment: as above; details: application rate 320 g/ha, scored after about 3 weeks
In short: as §3

Hordeum murinum = experiment: as above; details: application rate 320 g/ha
In short: as §3

Lolium rigidum [20] = experiment: as above
In short: as §3

Matricaria inodora [21] = experiment: as above; details: scored after about 3 weeks
In short: as §3

Pharbitis purpurea [22] = experiment: as above; details: application rate 320 g/ha
In short: as §3

Setaria viridis [23] = experiment: as above; details: application rate 320 g/ha, scored after about 3 weeks
In short: as §3

Stellaria media [24] = experiment: as above; details: application rate 320 g/ha, scored after about 3 weeks
In short: as §3

Veronica persica [25] = experiment: as above
In short: as §3

Viola tricolor [26] = experiment: as above; details: scored after about 3 weeks
In short: as §3

Glycine max [27] = experiment: Crop compatibility pre-emergence (greenhouse pot trial); details: effect vs untreated controls
In short: (§4)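 Pre-emergence: seeds in pots under soil cover → WP/EC formulations applied to soil surface in water (600 L/ha) plus 0.5% additive → greenhouse, good growth conditions → ~3 wk → visual % damage vs untreated control.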

Oryza sativa [28] = experiment: as above; details: effect vs untreated controls
In short: as §4

Zea mays [29] = experiment: as above; details: effect vs untreated controls
In short: as §4

Pharbitis purpurea [30] = experiment: Herbicidal action post-emergence (greenhouse pot trial); details: application rate 80 g/ha
In short: as §1

Cyperus esculentus = experiment: Herbicidal action pre-emergence (greenhouse pot trial); details: application rate 320 g/ha
In short: as §3

Polygonum convolvulus [31] = experiment: as above; details: application rate 80 g/ha, scored after about 3 weeks
In short: as §3

Avena fatua [32] = experiment: Herbicidal action post-emergence (greenhouse pot trial); details: application rate 80 g/ha, scored visually after about 3 weeks vs untreated controls
In short: as §1

Structure (SMILES) | Alopecurus myosuroides (Efficacy in %) (Alopecurus myosuroides [2]) [%] | Triticum aestivum (Efficacy in %) (Triticum aestivum) [%] | Zea mays (Efficacy in %) (Zea mays [14]; application rate 80 g/ha) [%] | Abutilon theophrasti (Efficacy in %) (Abutilon theophrasti [15]; application rate 320 g/ha) [%] | Alopecurus myosuroides (Efficacy in %) (Alopecurus myosuroides [16]) [%] | Amaranthus retroflexus (Efficacy in %) (Amaranthus retroflexus [17]; application rate 320 g/ha) [%] | Avena fatua (Efficacy in %) (Avena fatua [18]) [%] | Echinochloa crus-galli (Efficacy in %) (Echinochloa crus-galli [19]) [%] | Hordeum murinum (Efficacy in %) (Hordeum murinum) [%] | Matricaria inodora (Efficacy in %) (Matricaria inodora [21]; application rate 320 g/ha) [%] | Pharbitis purpurea (Efficacy in %) (Pharbitis purpurea [22]) [%] | Setaria viridis (Efficacy in %) (Setaria viridis [23]) [%] | Stellaria media (Efficacy in %) (Stellaria media [24]) [%] | Veronica persica (Efficacy in %) (Veronica persica [25]; application rate 320 g/ha) [%] | Viola tricolor (Efficacy in %) (Viola tricolor [26]; application rate 320 g/ha) [%] | Oryza sativa (Efficacy in %) (Oryza sativa [28]; application rate 20 g/ha) [%] | Zea mays (Efficacy in %) (Zea mays [29]; application rate 20 g/ha) [%] | Abutilon theophrasti (Efficacy in %) (Abutilon theophrasti [1]; application rate 80 g/ha) [%] | Amaranthus retroflexus (Efficacy in %) (Amaranthus retroflexus [3]; application rate 80 g/ha) [%] | Matricaria inodora (Efficacy in %) (Matricaria inodora [6]; application rate 80 g/ha) [%] | also measured
CSCCNC(=O)C(C)Sc1cc(-n2c(=O)cc(C(F)(F)F)n(C)c2=O)c(F)cc1Cl (centres unmarked) [I.1-181] | 80 | 20 | 20 | 100 | 100 | 100 | 100 | 100 | 90 | 100 | 100 | 100 | 100 | 100 | 100 | 0 | 0 |  |  |  | Abutilon theophrasti (Efficacy in %) (Abutilon theophrasti [1]; application rate 20 g/ha): 100%; Amaranthus retroflexus (Efficacy in %) (Amaranthus retroflexus [3]; application rate 20 g/ha): 100%; Echinochloa crus-galli (Efficacy in %) (Echinochloa crus-galli [4]; application rate 20 g/ha): 100%; Lolium rigidum (Efficacy in %) (Lolium rigidum [5]; application rate 20 g/ha): 80%; Matricaria inodora (Efficacy in %) (Matricaria inodora [6]; application rate 20 g/ha): 100%; Polygonum convolvulus (Efficacy in %) (Polygonum convolvulus [7]; application rate 20 g/ha): 100%; Setaria viridis (Efficacy in %) (Setaria viridis [8]; application rate 20 g/ha): 100%; Stellaria media (Efficacy in %) (Stellaria media [9]; application rate 20 g/ha): 100%; Veronica persica (Efficacy in %) (Veronica persica [10]; application rate 20 g/ha): 100%; Viola tricolor (Efficacy in %) (Viola tricolor [11]; application rate 20 g/ha): 100%; Glycine max (Efficacy in %) (Glycine max [12]; application rate 20 g/ha): 20%; Oryza sativa (Efficacy in %) (Oryza sativa [13]; application rate 80 g/ha): 10%; Lolium rigidum (Efficacy in %) (Lolium rigidum [20]; application rate 80 g/ha): 100%; Glycine max (Efficacy in %) (Glycine max [27]; application rate 80 g/ha): 20%
CC(Sc1cc(-n2c(=O)cc(C(F)(F)F)n(C)c2=O)c(F)cc1Cl)C(=O)NCC1(C)CCCO1 (centres unmarked) [I.1-224] | 80 | 20 | 20 | 100 | 100 | 100 | 100 | 100 | 100 | 100 | 100 | 100 | 100 | 100 | 100 | 0 | 0 | 100 | 100 | 100 | Pharbitis purpurea (Efficacy in %) (Pharbitis purpurea [30]): 100%; Polygonum convolvulus (Efficacy in %) (Polygonum convolvulus [7]; application rate 80 g/ha): 100%; Setaria viridis (Efficacy in %) (Setaria viridis [8]; application rate 80 g/ha): 100%; Stellaria media (Efficacy in %) (Stellaria media [9]; application rate 80 g/ha): 80%; Veronica persica (Efficacy in %) (Veronica persica [10]; application rate 80 g/ha): 100%; Viola tricolor (Efficacy in %) (Viola tricolor [11]; application rate 80 g/ha): 100%; Oryza sativa (Efficacy in %) (Oryza sativa [13]; application rate 20 g/ha): 10%; Cyperus esculentus (Efficacy in %) (Cyperus esculentus): 90%; Lolium rigidum (Efficacy in %) (Lolium rigidum [20]; application rate 320 g/ha): 100%; Glycine max (Efficacy in %) (Glycine max [27]; application rate 20 g/ha): 0%
CC(Sc1cc(-n2c(=O)cc(C(F)(F)F)n(C)c2=O)c(F)cc1Cl)C(=O)NCC1CCCO1 (centres unmarked) [I.1-271] | 100 | 20 |  | 100 | 100 | 100 | 100 | 100 | 100 | 100 | 100 | 100 | 100 | 100 | 100 | 20 | 0 | 100 | 100 | 100 | Echinochloa crus-galli (Efficacy in %) (Echinochloa crus-galli [4]; application rate 80 g/ha): 90%; Lolium rigidum (Efficacy in %) (Lolium rigidum [5]; application rate 80 g/ha): 100%; Pharbitis purpurea (Efficacy in %) (Pharbitis purpurea [30]): 100%; Polygonum convolvulus (Efficacy in %) (Polygonum convolvulus [7]; application rate 80 g/ha): 100%; Setaria viridis (Efficacy in %) (Setaria viridis [8]; application rate 80 g/ha): 100%; Stellaria media (Efficacy in %) (Stellaria media [9]; application rate 80 g/ha): 100%; Veronica persica (Efficacy in %) (Veronica persica [10]; application rate 80 g/ha): 100%; Viola tricolor (Efficacy in %) (Viola tricolor [11]; application rate 80 g/ha): 100%; Glycine max (Efficacy in %) (Glycine max [12]; application rate 5 g/ha): 20%; Oryza sativa (Efficacy in %) (Oryza sativa [13]; application rate 20 g/ha): 10%; Zea mays (Efficacy in %) (Zea mays [14]; application rate 20 g/ha): 10%; Cyperus esculentus (Efficacy in %) (Cyperus esculentus): 80%; Lolium rigidum (Efficacy in %) (Lolium rigidum [20]; application rate 320 g/ha): 100%; Glycine max (Efficacy in %) (Glycine max [27]; application rate 20 g/ha): 10%
CC(Sc1cc(-n2c(=O)cc(C(F)(F)F)n(C)c2=O)c(F)cc1Cl)C(=O)OCC1CCCS1 (centres unmarked) [I.1-81] |  | 20 |  |  |  |  |  |  |  |  |  |  |  |  |  |  |  |  |  |  | Abutilon theophrasti (Efficacy in %) (Abutilon theophrasti [1]; application rate 20 g/ha): 100%; Amaranthus retroflexus (Efficacy in %) (Amaranthus retroflexus [3]; application rate 20 g/ha): 100%; Matricaria inodora (Efficacy in %) (Matricaria inodora [6]; application rate 20 g/ha): 90%; Polygonum convolvulus (Efficacy in %) (Polygonum convolvulus [7]; application rate 20 g/ha): 90%; Veronica persica (Efficacy in %) (Veronica persica [10]; application rate 20 g/ha): 100%; Viola tricolor (Efficacy in %) (Viola tricolor [11]; application rate 20 g/ha): 100%; Oryza sativa (Efficacy in %) (Oryza sativa [13]; application rate 20 g/ha): 0%; Zea mays (Efficacy in %) (Zea mays [14]; application rate 20 g/ha): 10%; Abutilon theophrasti (Efficacy in %) (Abutilon theophrasti [15]; application rate 80 g/ha): 100%; Amaranthus retroflexus (Efficacy in %) (Amaranthus retroflexus [17]; application rate 80 g/ha): 100%; Matricaria inodora (Efficacy in %) (Matricaria inodora [21]; application rate 80 g/ha): 80%; Polygonum convolvulus (Efficacy in %) (Polygonum convolvulus [31]): 100%; Veronica persica (Efficacy in %) (Veronica persica [25]; application rate 80 g/ha): 80%; Viola tricolor (Efficacy in %) (Viola tricolor [26]; application rate 80 g/ha): 100%; Glycine max (Efficacy in %) (Glycine max [27]; application rate 80 g/ha): 0%; Zea mays (Efficacy in %) (Zea mays [29]; application rate 80 g/ha): 0%
Cn1c(C(F)(F)F)cc(=O)n(-c2cc(SCC(=O)NCC3CCCO3)c(Cl)cc2F)c1=O (centres unmarked) [I.8-271] | 100 |  | 20 | 100 | 90 | 100 | 90 | 80 |  | 100 | 100 | 100 | 90 | 100 | 100 |  |  | 100 | 100 | 100 | Avena fatua (Efficacy in %) (Avena fatua [32]): 90%; Echinochloa crus-galli (Efficacy in %) (Echinochloa crus-galli [4]; application rate 80 g/ha): 80%; Pharbitis purpurea (Efficacy in %) (Pharbitis purpurea [30]): 100%; Polygonum convolvulus (Efficacy in %) (Polygonum convolvulus [7]; application rate 80 g/ha): 100%; Setaria viridis (Efficacy in %) (Setaria viridis [8]; application rate 80 g/ha): 100%; Stellaria media (Efficacy in %) (Stellaria media [9]; application rate 80 g/ha): 100%; Veronica persica (Efficacy in %) (Veronica persica [10]; application rate 80 g/ha): 100%; Viola tricolor (Efficacy in %) (Viola tricolor [11]; application rate 80 g/ha): 100%; Oryza sativa (Efficacy in %) (Oryza sativa [28]; application rate 80 g/ha): 0%; Zea mays (Efficacy in %) (Zea mays [29]; application rate 80 g/ha): 20%
